Experimental data published in PubChem BioAssay AID1745844 (Carcinogenic Potency Database (CPDB), 2022).
Several values for one entry are separate records, joined by “and”; a condition that tells them apart may be missing. Equal values may be shown once. Activity calls are given as the source filed them. How the calls were made is not given here.

Test system: rodent lifetime carcinogenesis bioassay, tumor incidence TD50
Assay: carcinogenic potency in animals, long-term in vivo studies, CPDB compilation (AID 1745844)
Conditions: in feed

ClC1=C(Cl)[C@]2(Cl)[C@@H]3[C@@H]4C[C@@H]([C@H]5O[C@@H]45)[C@@H]3[C@@]1(Cl)C2(Cl)Cl
5.12 mg/kg/day and 6.58 mg/kg/day: TD50 (mouse, strain CF-1, males, site: liver, lesion: liver-cell tumor, type B, dosed 128 weeks, study length 128 weeks)
9.72 mg/kg/day: TD50 (mouse, strain CF-1, females, site: liver, lesion: liver-cell tumor, type B, dosed 108 weeks, study length 128 weeks)
1.09 mg/kg/day: TD50 (mouse, strain B6C3F1, females, site: liver, lesion: hepatocellular adenoma + hepatocellular carcinoma + neoplastic nodule, dosed 80 weeks, study length 91 weeks)
4.02 mg/kg/day: TD50 (mouse, strain CF-1, males, site: liver, lesion: liver-cell tumor, type B, dosed 110 weeks, study length 124 weeks)
2.59 mg/kg/day: TD50 (mouse, strain CF-1, females, site: liver, lesion: liver-cell tumor, type B, dosed 90 weeks, study length 90 weeks)
38.4 mg/kg/day: TD50 (rat, strain Osborne-Mendel, females, site: liver, lesion: hepatocellular adenoma + hepatocellular carcinoma + neoplastic nodule, dosed 90 weeks, study length 110 weeks)
24.7 mg/kg/day: TD50 (mouse, strain B6C3F1, males, site: lung, lesion: alveolar/bronchiolar adenoma + alveolar/bronchiolar carcinoma, dosed 80 weeks, study length 91 weeks)
5.05 mg/kg/day: TD50 (mouse, strain B6C3F1, females, site: lung, lesion: alveolar/bronchiolar adenoma + alveolar/bronchiolar carcinoma, dosed 80 weeks, study length 91 weeks)
1.04 mg/kg/day: TD50 (mouse, strain B6C3F1, males, site: liver, lesion: hepatocellular adenoma + hepatocellular carcinoma + neoplastic nodule, dosed 80 weeks, study length 91 weeks)
1.68 mg/kg/day: TD50 (mouse, strain CF-1, males, site: liver, lesion: liver-cell tumor, type B, dosed 120 weeks, study length 134 weeks)
3.1 mg/kg/day: TD50 (mouse, strain C3HeB/Fe, both sexes, site: any site (literature study), lesion: benign tumor, dosed 104 weeks, study length 104 weeks)
inactive: TD50 (hamster, strain Syrian Golden, females, site: any site (literature study), lesion: several types, types named in the paper, dosed 100 weeks, study length 114 weeks) 355 mg/kg/day | TD50 (hamster, strain Syrian Golden, females, site: liver, lesion: hepatoma, dosed 100 weeks, study length 114 weeks) 176 mg/kg/day | carcinogen call (hamster, strain Syrian Golden, females, site: lung, lesion: one or several types, types not named, dosed 100 weeks, study length 114 weeks) negative | TD50 (hamster, strain Syrian Golden, males, site: any site (literature study), lesion: several types, types named in the paper, dosed 114 weeks, study length 114 weeks) 69.9 mg/kg/day | TD50 (hamster, strain Syrian Golden, males, site: liver, lesion: hepatoma, dosed 114 weeks, study length 114 weeks) 198 mg/kg/day | TD50 (hamster, strain Syrian Golden, males, site: lung, lesion: adenoma, dosed 114 weeks, study length 114 weeks) 732 mg/kg/day | carcinogen call (mouse, strain B6C3F1, females, site: any site (literature study), lesion: several types, types named in the paper, dosed 80 weeks, study length 91 weeks) negative | TD50 (mouse, strain B6C3F1, males, site: any site (literature study), lesion: several types, types named in the paper, dosed 80 weeks, study length 91 weeks) 1.06 mg/kg/day | carcinogen call (mouse, strain CF-1, females, site: lung, lesion: adenoma, dosed 90 weeks, study length 90 weeks) negative | TD50 (mouse, strain CF-1, females, site: lung, lesion: adenoma, dosed 106 weeks, study length 106 weeks) 5.69 mg/kg/day | carcinogen call (mouse, strain CF-1, females, site: lung, lesion: adenoma, dosed 108 weeks, study length 128 weeks) negative | TD50 (mouse, strain CF-1, females, site: lung, lesion: adenoma, dosed 122 weeks, study length 138 weeks) 0.606 mg/kg/day | carcinogen call (mouse, strain CF-1, females, site: lung, lesion: adenoma, dosed 128 weeks, study length 128 weeks) negative | carcinogen call (mouse, strain CF-1, females, site: lung, lesion: carcinoma, dosed 90 weeks, study length 90 weeks) negative | carcinogen call (mouse, strain CF-1, females, site: lung, lesion: carcinoma, dosed 106 weeks, study length 106 weeks) negative | carcinogen call (mouse, strain CF-1, females, site: lung, lesion: carcinoma, dosed 108 weeks, study length 128 weeks) negative | TD50 (mouse, strain CF-1, females, site: lung, lesion: carcinoma, dosed 122 weeks, study length 138 weeks) 1.78 mg/kg/day | carcinogen call (mouse, strain CF-1, females, site: lung, lesion: carcinoma, dosed 128 weeks, study length 128 weeks) negative | carcinogen call (mouse, strain CF-1, females, site: lung, lesion: one or several types, types not named, dosed 110 weeks, study length 110 weeks) negative | carcinogen call (mouse, strain CF-1, males, site: lung, lesion: adenoma, dosed 110 weeks, study length 124 weeks) negative | carcinogen call (mouse, strain CF-1, males, site: lung, lesion: adenoma, dosed 112 weeks, study length 128 weeks) negative | TD50 (mouse, strain CF-1, males, site: lung, lesion: adenoma, dosed 120 weeks, study length 134 weeks) 2.13 mg/kg/day | carcinogen call (mouse, strain CF-1, males, site: lung, lesion: adenoma, dosed 128 weeks, study length 128 weeks) negative | carcinogen call (mouse, strain CF-1, males, site: lung, lesion: carcinoma, dosed 110 weeks, study length 124 weeks) negative | carcinogen call (mouse, strain CF-1, males, site: lung, lesion: carcinoma, dosed 112 weeks, study length 128 weeks) negative | TD50 (mouse, strain CF-1, males, site: lung, lesion: carcinoma, dosed 120 weeks, study length 134 weeks) 3.71 mg/kg/day | carcinogen call (mouse, strain CF-1, males, site: lung, lesion: carcinoma, dosed 128 weeks, study length 128 weeks) negative | carcinogen call (mouse, strain CF-1, males, site: lung, lesion: one or several types, types not named, dosed 110 weeks, study length 110 weeks) negative | carcinogen call (rat, strain CFE, females, site: any site (literature study), lesion: several types, types named in the paper, dosed 104 weeks, study length 104 weeks) negative | TD50 (rat, strain CFE, males, site: any site (literature study), lesion: several types, types named in the paper, dosed 104 weeks, study length 104 weeks) 2.01 mg/kg/day | TD50 (rat, strain Fischer 344, females, site: any site (literature study), lesion: several types, types named in the paper, dosed 105 weeks, study length 104 weeks) 489 mg/kg/day | TD50 (rat, strain Fischer 344, males, site: any site (literature study), lesion: several types, types named in the paper, dosed 105 weeks, study length 104 weeks) 7.28 mg/kg/day | TD50 (rat, strain Not specified, females, site: any site (literature study), lesion: one or several types, types not named, dosed 104 weeks, study length 104 weeks) 57.2 mg/kg/day | TD50 (rat, strain Not specified, males, site: any site (literature study), lesion: one or several types, types not named, dosed 104 weeks, study length 104 weeks) 40.5 mg/kg/day | TD50 (rat, strain Osborne-Mendel, females, site: adrenal gland, lesion: cortical adenoma + cortical carcinoma, dosed 90 weeks, study length 109 weeks) 4.42 mg/kg/day | carcinogen call (rat, strain Osborne-Mendel, females, site: any site (literature study), lesion: several types, types named in the paper, dosed 90 weeks, study length 110 weeks) negative | carcinogen call (rat, strain Osborne-Mendel, females, site: any site (literature study), lesion: several types, types named in the paper, dosed 121 weeks, study length 126 weeks) negative | carcinogen call (rat, strain Osborne-Mendel, females, site: liver, lesion: one or several types, types not named, dosed 121 weeks, study length 126 weeks) negative | TD50 (rat, strain Osborne-Mendel, males, site: any site (literature study), lesion: several types, types named in the paper, dosed 90 weeks, study length 110 weeks) 3.34 mg/kg/day | carcinogen call (rat, strain Osborne-Mendel, males, site: any site (literature study), lesion: several types, types named in the paper, dosed 126 weeks, study length 126 weeks) negative | carcinogen call (rat, strain Osborne-Mendel, males, site: liver, lesion: hemangioma, dosed 126 weeks, study length 126 weeks) negative
4.66 mg/kg/day: TD50 (mouse, strain CF-1, males, site: liver, lesion: liver-cell tumor, type B, dosed 112 weeks, study length 128 weeks)
1.96 mg/kg/day: TD50 (mouse, strain CF-1, females, site: liver, lesion: liver-cell tumor, type B, dosed 122 weeks, study length 138 weeks)
3.08 mg/kg/day: TD50 (mouse, strain C3HeB/Fe, both sexes, site: liver, lesion: hepatoma, dosed 104 weeks, study length 104 weeks)
167 mg/kg/day: TD50 (mouse, strain C3HeB/Fe, both sexes, site: liver, lesion: hepatocellular carcinoma, dosed 104 weeks, study length 104 weeks)
3.96 mg/kg/day: TD50 (mouse, strain CF-1, females, site: liver, lesion: liver-cell tumor, type B, dosed 106 weeks, study length 106 weeks)
12.1 mg/kg/day: TD50 (mouse, strain CF-1, females, site: liver, lesion: liver-cell tumor, type B, dosed 128 weeks, study length 128 weeks)
active: TD50 (mouse, strain B6C3F1, males, site: liver, lesion: hepatocellular carcinoma, dosed 80 weeks, study length 89 weeks) 1.35 mg/kg/day | TD50 (mouse, strain C3HeB/Fe, both sexes, site: liver, lesion: hepatocellular adenoma, dosed 104 weeks, study length 104 weeks) 4.09 mg/kg/day | TD50 (mouse, strain CF-1, females, site: liver, lesion: liver-cell tumor, dosed 110 weeks, study length 110 weeks) 1.59 mg/kg/day | TD50 (mouse, strain CF-1, females, site: liver, lesion: several types, types named in the paper, dosed 90 weeks, study length 90 weeks) 1.05 mg/kg/day | TD50 (mouse, strain CF-1, females, site: liver, lesion: several types, types named in the paper, dosed 106 weeks, study length 106 weeks) 1.16 mg/kg/day | TD50 (mouse, strain CF-1, females, site: liver, lesion: several types, types named in the paper, dosed 108 weeks, study length 128 weeks) 1.49 mg/kg/day | TD50 (mouse, strain CF-1, females, site: liver, lesion: several types, types named in the paper, dosed 110 weeks, study length 110 weeks) 0.567 mg/kg/day | TD50 (mouse, strain CF-1, females, site: liver, lesion: several types, types named in the paper, dosed 122 weeks, study length 138 weeks) 0.642 mg/kg/day | TD50 (mouse, strain CF-1, females, site: liver, lesion: several types, types named in the paper, dosed 128 weeks, study length 128 weeks) 3.11 mg/kg/day | TD50 (mouse, strain CF-1, males, site: liver, lesion: liver-cell tumor, dosed 110 weeks, study length 110 weeks) 1.28 mg/kg/day | carcinogen call (mouse, strain CF-1, males, site: liver, lesion: several types, types named in the paper, dosed 110 weeks, study length 110 weeks) positive | TD50 (mouse, strain CF-1, males, site: liver, lesion: several types, types named in the paper, dosed 110 weeks, study length 124 weeks) 0.713 mg/kg/day | TD50 (mouse, strain CF-1, males, site: liver, lesion: several types, types named in the paper, dosed 112 weeks, study length 128 weeks) 1.12 mg/kg/day | TD50 (mouse, strain CF-1, males, site: liver, lesion: several types, types named in the paper, dosed 120 weeks, study length 134 weeks) 0.547 mg/kg/day | TD50 (mouse, strain CF-1, males, site: liver, lesion: several types, types named in the paper, dosed 128 weeks, study length 128 weeks) 0.913 mg/kg/day and 1.91 mg/kg/day | carcinogen call (rat, strain Osborne-Mendel, both sexes, site: any site (literature study), lesion: several types, types named in the paper, dosed 104 weeks, study length 104 weeks) positive
